Experimental data published in patent US8247211B2, “Glycopeptide antibiotics” (American Cyanamid Company, priority 2001, dated 2012).
In brackets after ≈: the same amount, converted by molar mass.

Key:
Test in all cases: In vitro antibacterial evaluation: minimum inhibitory concentration (MIC), broth dilution method
Type in all cases: cell-based
Conditions in all cases: 18 hours at 35° C.
Escherichia coli = test system: Escherichia coli
Method in brief: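 Broth dilution per NCCLS M7-A2 in Muller-Hinton II […], inoculum 5×10^5 CFU/mL, antibiotic tested over 64-0.06 μg/mL. MIC is taken as the lowest concentration that inhibits growth. Panel includes recent clinical isolates resistant to methicillin, penicillin and/or vancomycin.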

Streptococcus sp. = test system: Streptococcus sp.
Method in brief: (§1)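 MIC by broth dilution in Mueller-Hinton II medium following NCCLS M7-A2. Inoculum was 5×10^5 CFU/mL and antibiotic was tested over 64-0.06 μg/mL. Gram-positive panel included clinical isolates resistant to methicillin, penicillin and/or vancomycin.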

Enterococcus sp. = test system: Enterococcus sp.
Method in brief: as §1

Staphylococcus sp. = test system: Staphylococcus sp.
Method in brief: as §1

[1] = Streptococcus agalactiae (GC 4564)
[2] = Streptococcus pneumoniae (ATCC 6301)
[3] = Streptococcus pneumoniae (GC 1894)
[4] = Streptococcus pneumoniae (GC 4565)
[5] = Streptococcus pyogenes (GC 4563)
[6] = broth dilution, inoculum 5×10^5 CFU/mL
[7] = Enterococcus faecalis (GC 2242)
[8] = Enterococcus faecalis (GC 2691)
[9] = Enterococcus faecalis (GC 3059)

CC(c1ccccc1)C1NC(=O)CNC(=O)C(CO)NC(=O)C(C(O)C2CNC(=N)N2C2OC(CO)C(O)C(O)C2O)NC(=O)C(C(O)C2CNC(=N)N2)NC(=O)C(Cc2ccc(OC3OC(CO)C(OC4OC(COCC=Cc5ccc(N(C)C)cc5)C(O)C(O)C4O)C(O)C3O)cc2)NC1=O (centres unmarked) [Example 243] was tested, and the “MIC Escherichia coli (ATCC 25922)” value (Escherichia coli) was greater than 64 µg/mL, the “MIC Escherichia coli (GC 4559)” value (Escherichia coli) was greater than 64 µg/mL and the “MIC Escherichia coli (GC 4560)” value (Escherichia coli) was 64 µg/mL (≈ 44 µM). The “MIC Streptococcus agalactiae (GC 4564)” value (Streptococcus sp.; [1]) was 32 µg/mL (≈ 22 µM), the “MIC Streptococcus pneumoniae (ATCC 6301)” value (Streptococcus sp.; [2]) was 32 µg/mL (≈ 22 µM) and the “MIC Streptococcus pneumoniae (GC 1894)” value (Streptococcus sp.; [3]) was 8 µg/mL (≈ 5.5 µM). For the same compound, the “MIC Streptococcus pneumoniae (GC 4565)” value (Streptococcus sp.; [4]) was 16 µg/mL (≈ 11 µM), the “MIC Streptococcus pyogenes (GC 4563)” value (Streptococcus sp.; [5]) was 32 µg/mL (≈ 22 µM) and the “MIC Streptococcus agalactiae (GC 4564)” value (Streptococcus sp.; [6]) was 32 µg/mL (≈ 22 µM). The “MIC Streptococcus pneumoniae (ATCC 6301)” value (Streptococcus sp.; [6]) was 32 µg/mL (≈ 22 µM), the “MIC Streptococcus pneumoniae (GC 1894)” value (Streptococcus sp.; [6]) was 8 µg/mL (≈ 5.5 µM) and the “MIC Streptococcus pneumoniae (GC 4565)” value (Streptococcus sp.; [6]) was 16 µg/mL (≈ 11 µM). For the same compound, the “MIC Streptococcus pyogenes (GC 4563)” value (Streptococcus sp.; [6]) was 32 µg/mL (≈ 22 µM), the “MIC Enterococcus avium (GC 4558)” value (Enterococcus sp.) was 32 µg/mL (≈ 22 µM) and the “MIC Enterococcus faecalis (ATCC 29212)” value (Enterococcus sp.) was greater than 64 µg/mL. The “MIC Enterococcus faecalis (GC 2242)” value (Enterococcus sp.; [7]) was 64 µg/mL (≈ 44 µM), the “MIC Enterococcus faecalis (GC 2691)” value (Enterococcus sp.; [8]) was greater than 64 µg/mL and the “MIC Enterococcus faecalis (GC 3059)” value (Enterococcus sp.; [9]) was greater than 64 µg/mL. The “MIC Enterococcus faecalis (GC 4552)” value (Enterococcus sp.) was greater than 64 µg/mL, the “MIC Enterococcus faecalis (GC 4553)” value (Enterococcus sp.) was 64 µg/mL (≈ 44 µM) and the “MIC Enterococcus faecalis (GC 4554)” value (Enterococcus sp.) was greater than 64 µg/mL. The “MIC Enterococcus faecalis (GC 6189)” value (Enterococcus sp.) was 64 µg/mL (≈ 44 µM), the “MIC Enterococcus faecium (GC 2243)” value (Enterococcus sp.) was 64 µg/mL (≈ 44 µM) and the “MIC Enterococcus faecium (GC 4556)” value (Enterococcus sp.) was greater than 64 µg/mL. The “MIC Enterococcus faecium (GC 4557)” value (Enterococcus sp.) was 32 µg/mL (≈ 22 µM), the “MIC Enterococcus faecalis (GC 2242)” value (Enterococcus sp.; [6]) was 64 µg/mL (≈ 44 µM) and the “MIC Enterococcus faecalis (GC 2691)” value (Enterococcus sp.; [6]) was greater than 64 µg/mL. The “MIC Enterococcus faecalis (GC 3059)” value (Enterococcus sp.; [6]) was greater than 64 µg/mL, the “MIC Coagulase Negative Staphylococcus (GC 4547)” value (Staphylococcus sp.) was 64 µg/mL (≈ 44 µM) and the “MIC Coagulase Negative Staphylococcus (GC 4548)” value (Staphylococcus sp.) was 32 µg/mL (≈ 22 µM). The “MIC Coagulase Negative Staphylococcus (GC 4549)” value (Staphylococcus sp.) was 32 µg/mL (≈ 22 µM), the “MIC Coagulase Negative Staphylococcus (GC 4551)” value (Staphylococcus sp.) was 64 µg/mL (≈ 44 µM) and the “MIC Coagulase Negative Staphylococcus (GC 6257)” value (Staphylococcus sp.) was 32 µg/mL (≈ 22 µM). The “MIC Staphylococcus aureus (ATCC 29213)” value (Staphylococcus sp.) was 64 µg/mL (≈ 44 µM), the “MIC Staphylococcus aureus (GC 1131)” value (Staphylococcus sp.) was 64 µg/mL (≈ 44 µM) and the “MIC Staphylococcus aureus (GC 3051)” value (Staphylococcus sp.) was 64 µg/mL (≈ 44 µM). The “MIC Staphylococcus aureus (GC 3053)” value (Staphylococcus sp.) was 64 µg/mL (≈ 44 µM), the “MIC Staphylococcus aureus (GC 4541)” value (Staphylococcus sp.) was 64 µg/mL (≈ 44 µM) and the “MIC Staphylococcus aureus (GC 4542)” value (Staphylococcus sp.) was 64 µg/mL (≈ 44 µM). For the same compound, the “MIC Staphylococcus aureus (GC 4544)” value (Staphylococcus sp.) was 64 µg/mL (≈ 44 µM), the “MIC Staphylococcus aureus (GC 4545)” value (Staphylococcus sp.) was 64 µg/mL (≈ 44 µM) and the “MIC Staphylococcus aureus-SMITH (GC 4543)” value (Staphylococcus sp.) was 64 µg/mL (≈ 44 µM). The “MIC Staphylococcus haemolyticus (GC 4546)” value (Staphylococcus sp.) was 64 µg/mL (≈ 44 µM).
CC(c1ccccc1)C1NC(=O)CNC(=O)C(CO)NC(=O)C(C(O)C2CNC(=N)N2C2OC(CO)C(O)C(O)C2O)NC(=O)C(C(O)C2CNC(=N)N2)NC(=O)C(Cc2ccc(OC3OC(CO)C(OC4OC(CO)C(OCC=Cc5ccc(N(C)C)cc5)C(O)C4O)C(O)C3O)cc2)NC1=O (centres unmarked) [Example 243a] was tested, and the “MIC Escherichia coli (ATCC 25922)” value (Escherichia coli) was greater than 64 µg/mL, the “MIC Escherichia coli (GC 4559)” value (Escherichia coli) was greater than 64 µg/mL and the “MIC Escherichia coli (GC 4560)” value (Escherichia coli) was 32 µg/mL (≈ 22 µM). For the same compound, the “MIC Streptococcus agalactiae (GC 4564)” value (Streptococcus sp.; [1]) was 16 µg/mL (≈ 11 µM), the “MIC Streptococcus pneumoniae (ATCC 6301)” value (Streptococcus sp.; [2]) was 16 µg/mL (≈ 11 µM) and the “MIC Streptococcus pneumoniae (GC 1894)” value (Streptococcus sp.; [3]) was 1 µg/mL (≈ 0.688 µM). The “MIC Streptococcus pneumoniae (GC 4565)” value (Streptococcus sp.; [4]) was 2 µg/mL (≈ 1.38 µM), the “MIC Streptococcus pyogenes (GC 4563)” value (Streptococcus sp.; [5]) was 8 µg/mL (≈ 5.5 µM) and the “MIC Streptococcus agalactiae (GC 4564)” value (Streptococcus sp.; [6]) was 16 µg/mL (≈ 11 µM). For the same compound, the “MIC Streptococcus pneumoniae (ATCC 6301)” value (Streptococcus sp.; [6]) was 16 µg/mL (≈ 11 µM), the “MIC Streptococcus pneumoniae (GC 1894)” value (Streptococcus sp.; [6]) was 1 µg/mL (≈ 0.688 µM) and the “MIC Streptococcus pneumoniae (GC 4565)” value (Streptococcus sp.; [6]) was 2 µg/mL (≈ 1.38 µM). For the same compound, the “MIC Streptococcus pyogenes (GC 4563)” value (Streptococcus sp.; [6]) was 8 µg/mL (≈ 5.5 µM), the “MIC Enterococcus avium (GC 4558)” value (Enterococcus sp.) was 16 µg/mL (≈ 11 µM) and the “MIC Enterococcus faecalis (ATCC 29212)” value (Enterococcus sp.) was 32 µg/mL (≈ 22 µM). For the same compound, the “MIC Enterococcus faecalis (GC 2242)” value (Enterococcus sp.; [7]) was 32 µg/mL (≈ 22 µM), the “MIC Enterococcus faecalis (GC 2691)” value (Enterococcus sp.; [8]) was 32 µg/mL (≈ 22 µM) and the “MIC Enterococcus faecalis (GC 3059)” value (Enterococcus sp.; [9]) was 32 µg/mL (≈ 22 µM). The “MIC Enterococcus faecalis (GC 4552)” value (Enterococcus sp.) was 32 µg/mL (≈ 22 µM), the “MIC Enterococcus faecalis (GC 4553)” value (Enterococcus sp.) was 32 µg/mL (≈ 22 µM) and the “MIC Enterococcus faecalis (GC 4554)” value (Enterococcus sp.) was 32 µg/mL (≈ 22 µM). The “MIC Enterococcus faecalis (GC 6189)” value (Enterococcus sp.) was 32 µg/mL (≈ 22 µM), the “MIC Enterococcus faecium (GC 2243)” value (Enterococcus sp.) was 32 µg/mL (≈ 22 µM) and the “MIC Enterococcus faecium (GC 4556)” value (Enterococcus sp.) was 32 µg/mL (≈ 22 µM). For the same compound, the “MIC Enterococcus faecium (GC 4557)” value (Enterococcus sp.) was 16 µg/mL (≈ 11 µM), the “MIC Enterococcus faecalis (GC 2242)” value (Enterococcus sp.; [6]) was 32 µg/mL (≈ 22 µM) and the “MIC Enterococcus faecalis (GC 2691)” value (Enterococcus sp.; [6]) was 32 µg/mL (≈ 22 µM). For the same compound, the “MIC Enterococcus faecalis (GC 3059)” value (Enterococcus sp.; [6]) was 32 µg/mL (≈ 22 µM), the “MIC Coagulase Negative Staphylococcus (GC 4547)” value (Staphylococcus sp.) was 32 µg/mL (≈ 22 µM) and the “MIC Coagulase Negative Staphylococcus (GC 4548)” value (Staphylococcus sp.) was 32 µg/mL (≈ 22 µM). The “MIC Coagulase Negative Staphylococcus (GC 4549)” value (Staphylococcus sp.) was 16 µg/mL (≈ 11 µM), the “MIC Coagulase Negative Staphylococcus (GC 4551)” value (Staphylococcus sp.) was 32 µg/mL (≈ 22 µM) and the “MIC Coagulase Negative Staphylococcus (GC 6257)” value (Staphylococcus sp.) was 16 µg/mL (≈ 11 µM). The “MIC Staphylococcus aureus (ATCC 29213)” value (Staphylococcus sp.) was 32 µg/mL (≈ 22 µM), the “MIC Staphylococcus aureus (GC 1131)” value (Staphylococcus sp.) was 32 µg/mL (≈ 22 µM) and the “MIC Staphylococcus aureus (GC 3051)” value (Staphylococcus sp.) was 32 µg/mL (≈ 22 µM). The “MIC Staphylococcus aureus (GC 3053)” value (Staphylococcus sp.) was 32 µg/mL (≈ 22 µM), the “MIC Staphylococcus aureus (GC 4541)” value (Staphylococcus sp.) was 32 µg/mL (≈ 22 µM) and the “MIC Staphylococcus aureus (GC 4542)” value (Staphylococcus sp.) was 32 µg/mL (≈ 22 µM). The “MIC Staphylococcus aureus (GC 4544)” value (Staphylococcus sp.) was 32 µg/mL (≈ 22 µM), the “MIC Staphylococcus aureus (GC 4545)” value (Staphylococcus sp.) was 32 µg/mL (≈ 22 µM) and the “MIC Staphylococcus aureus-SMITH (GC 4543)” value (Staphylococcus sp.) was 32 µg/mL (≈ 22 µM). The “MIC Staphylococcus haemolyticus (GC 4546)” value (Staphylococcus sp.) was 32 µg/mL (≈ 22 µM).
